Test results from US8969516B2, “Method of hydrolysis of peptide bond” (priority 2006, dated 2015).

What was measured:
[1] = Quantitative kinetic studies of Ni^2+ dependent peptide hydrolysis by HPLC; assay type: physicochemical; conditions: 1 mM peptide, 1 mM Ni^2+, 45° C., pH 8.2 (20 mM Tris)
Experimental: The title octapeptides were synthesised according to a typical Fmoc protocol (Fields, Meth. Enzymol. Vol. 289). The list of variable BXHZ sequences is given in Table 2, along with 1st order rate constants determined at 45° C., pH 8.2 (20 mM Tris buffer) for 1 mM peptide and Ni^2+ concentrations. […] The substrate and product peaks were identified by MALDI-TOF MS.

proteinase = test: Activity of SPI2 released from the recombinant polypeptide (Chavira et al.); assay type: biochemical; conditions: after Ni^2+ cleavage on Ni-NTA-agarose, 100 mM Hepes pH 8.2, 50° C., 19 hours
Experimental: The recombinant polypeptide from Example 4 (100 μl of a 140 μM solution) was loaded on 200 μl of Ni-NTA-agarose (Invitrogen), according to the manufacturer's instruction, and incubated in 100 mM Hepes buffer, pH 8.2 with 5 mM Ni^2+ at 50° C. without shaking. The incubation buffer (500 μl) was removed after 19 hours. Then the unreacted polypeptide and the cleaved off SRHW-AP-HHHHHH domain were washed from the column with two 400 μl portions of 200 mM imidazole, pH 7.4. The samples were analyzed by HPLC under conditions given in Example 4. FIG. 4 presented chromatograms of the control recombinant polypeptide, incubation buffer and both wash fractions. Masses of polypeptides were measured by ESI-MS. The yield of purified SPI2 was 88%. SPI2 obtained from this procedure was fully active, as determined according to […] et al., Anal. Biochem. 1984, 136, 446-450.

[2] = MALDI-TOF screening of Ni^2+ dependent hydrolysis in a combinatorial peptide library; assay type: physicochemical; conditions: CH3CO-Gly-Ala-Ser-X-His-Z-Lys-Phe-Leu-NH2 library, Ni^2+ 2 mM, pH 8.2, 10 mM Tris, score=24/tm
Method in brief: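 MALDI-TOF spectra taken at 2, 4, 6 and 8 h tracked the appearance of Ser/Thr-X-His-Z-Lys-Phe-Leu-NH2 cleavage products and the fall in substrate signals. Reactions: 1 mM peptide mixture, 2 mM Ni^2+, 10 mM Tris pH 8.2, at 37 or 45 °C; X/Z substitutions ranked by summed scores.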

[3] = Dependence of rate of hydrolysis of the Ala-Ser bond on buffer and Ni^2+ excess (HPLC); assay type: physicochemical; conditions: pH 8.2, 1 mM peptide; for κ ± S.D., 1st order rate constant for the hydrolysis: 25° C., 1.2 mM Ni^2+
Experimental: The title peptide was synthesised according to a standard Fmoc protocol (Fields, Meth. Enzymol. Vol. 289). The pH dependence of the formation of the active complex of the title peptide, represented by the structure (III) in Scheme 2, was determined by potentiometry at 25° C., as described in Krezel et al., Chem. Res. Toxicol. 2003, 16, 855-864. The rate of peptide hydrolysis was studied by HPLC (as in Example 2) in a series of mixed phosphate/Tris/Borax buffers (40/20/20 mM) at 25° C. and pH between 6 and 12.5, with peptide and Ni^2+ concentrations equal to 1 mM. As presented in FIG. 1, the rate of hydrolysis matched the formation of the active complex quantitatively.
The dependence of the rate of hydrolysis on the buffer used was studied at 25° C. separately in 20 mM Tris, Hepes and sodium phosphate buffers, all at pH 8.2, for 1 mM peptide and 1.2 mM Ni^2+.
The dependence of the rate of hydrolysis of the title peptide on the molar ratio of Ni^2+ to peptide was studied at 25° C. and pH 8.2, for 1 mM peptide. The reaction rate constant k was 4.3±0.2 s^−1×10^−5 for the Ni^2+ to peptide molar ratio of 1.2 and 4.72±0.01 s^−1×10^−5 for the Ni^2+ to peptide molar ratio of 5.

For Ac-GASWHIKFL-NH2 [-SWHI-], the “k ± S.D., 1st order rate constant for the hydrolysis” value (from here on “k ± S.D., 1st order rate constant”) [1] was 3 ± 1 s^−1 · 10^−5.
With Ac-GASRHWKFL-NH2 [-SRHW-] the “k ± S.D., 1st order rate constant” value [1] was 28.8 ± 0.8 s^−1 · 10^−5.
For “SPI2: single domain Kazal type proteinase inhibitor, released from (SPI2)-SRHW-AP-HHHHHH recombinant polypeptide”, the “activity of SPI2 obtained from cleavage on solid support” value (proteinase) was “fully active”.
For Ac-GATHHKKFL-NH2 [-THHK-], the “k ± S.D., 1st order rate constant” value [1] was 1.01 ± 0.09 s^−1 · 10^−5.
With “Ac-GASRHWKFL-NH2 [SRHW, CH3CO-Gly-Ala-Ser-Arg-His-Trp-Lys-Phe-Leu-NH2]” the “hydrolysis score from MALDI-TOF screening” value ([2]; 37° C.) was 12 (a score of 12, if it was seen to be partially hydrolysed at 2 hours), the “hydrolysis score from MALDI-TOF screening” value ([2]; 45° C.) was 12 (a score of 12, if it was seen to be partially hydrolysed at 2 hours) and the “κ ± S.D., 1st order rate constant for the hydrolysis” value (“κ ± S.D., 1st order rate constant” below) ([3]; 20 mM Hepes) was 5.9 ± 0.8 s^−1 × 10^−5. For the same substance, the “κ ± S.D., 1st order rate constant” value ([3]; 20 mM Tris) was 4.8 ± 0.5 s^−1 × 10^−5, the “κ ± S.D., 1st order rate constant” value ([3]; 20 mM phosphate) was 0.74 ± 0.09 s^−1 × 10^−5 and the “reaction rate constant k” value ([3]; Ni^2+ to peptide molar ratio of 1.2, 25° C.) was 4.3±0.2 s^−1×10^−5. For the same substance, the “reaction rate constant k” value ([3]; Ni^2+ to peptide molar ratio of 5, 25° C.) was 4.72±0.01 s^−1×10^−5.
